Measurements reported in US8178658B2 (Dow AgroSciences, LLC, priority 2008, dated 2012).

Tests used:
[1] = system: beet armyworm (BAW; Spodoptera exigua: Lepidoptera); assay: 96-well microtiter plate-based high throughput (HTS) diet bioassay on beet armyworm (BAW HTS); assay type: in vivo; conditions: for BAW HTS: BAW eggs, 12 μg test compound per well, mortality at 6 d post-treatment, mortality class; for pest or weed control at 12 µg/well, 12 µg/well: Spodoptera exigua, 144 h, read-out: BAW HTS
Method in brief: (§1)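 Mortality is the read-out for both formats, scored against a 50% cut-off. Microplate wells received eggs over diet carrying 12 μg test compound, kept in darkness at 29° C for 6 d, six replicates averaged. Diet-tray wells held second instar larvae on diet at 50 μg/cm^2, kept 6 d at 25° C under 14:10 photoperiod.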

[2] = system: beet armyworm (BAW; Spodoptera exigua: Lepidoptera); assay: 128-well diet tray assay on beet armyworm (BAW 50); assay type: in vivo; conditions: for BAW 50 ug/cm2: 128-well diet tray assay, 50 μg/cm^2 of test compound on diet, second instar BAW larvae, mortality class; for pest or weed control at 50 µg/cm2, 50 µg/cm2: Spodoptera exigua, 144 h, read-out: BAW 50 ug/cm2
Method in brief: as §1

[3] = 96-well microtiter plate HTS diet assay

| SMILES | BAW HTS ([1]; 96-well HTS diet assay) | BAW HTS [1, 3] | BAW 50 ug/cm2 [2] | pest or weed control at 12 µg/well, 12 µg/well [1] | pest or weed control at 50 µg/cm2, 50 µg/cm2 [2] |
| --- | --- | --- | --- | --- | --- |
| CCO[C@@H]1[C@@H](OC)[C@H](C)O[C@@H](OC(=O)Nc2ccc(N3CC(=O)N(c4ccc(OC(F)(F)C(F)(F)F)cc4)CC3=O)cc2)[C@@H]1OC [Compound 243] | B (either (1) the compound was tested and less than 50 percent mortality was observed or (2) the compound was not tested) | B (either (1) the compound was tested and less than 50 percent mortality was observed or (2) the compound was not tested) | B (either (1) the compound was tested and less than 50 percent mortality was observed or (2) the compound was not tested) | – | – |
| CO[C@H]1[C@H](C)O[C@H](OC(=O)Nc2ccc(-c3ncn(-c4ccc(OC(F)(F)C(F)(F)F)cc4)n3)cc2)C[C@@H]1OC [Compound 245] | B (either (1) the compound was tested and less than 50 percent mortality was observed or (2) the compound was not tested) | B (either (1) the compound was tested and less than 50 percent mortality was observed or (2) the compound was not tested) | A (the compound was tested and at least 50 percent mortality was observed) | – | – |
| CCO[C@@H]1[C@@H](OC)[C@H](C)O[C@@H](OC(=O)Nc2ccc(-c3ccc(-c4ccc(OC(F)(F)F)cc4)nn3)cc2)[C@@H]1OC [Compound 248] | B (either (1) the compound was tested and less than 50 percent mortality was observed or (2) the compound was not tested) | B (either (1) the compound was tested and less than 50 percent mortality was observed or (2) the compound was not tested) | B (either (1) the compound was tested and less than 50 percent mortality was observed or (2) the compound was not tested) | – | – |
| CCO[C@@H]1[C@@H](OC)[C@H](C)O[C@@H](OC(=O)Nc2ccc(-c3nn(-c4ccc(C(F)(F)F)cc4)c(=O)o3)cc2)[C@@H]1OC [Compound 249] | B (either (1) the compound was tested and less than 50 percent mortality was observed or (2) the compound was not tested) | B (either (1) the compound was tested and less than 50 percent mortality was observed or (2) the compound was not tested) | B (either (1) the compound was tested and less than 50 percent mortality was observed or (2) the compound was not tested) | – | – |
| CCO[C@@H]1[C@@H](OC)[C@H](C)O[C@@H](OC(=O)N(C)c2ccc(-c3ncn(-c4ccc(OC(F)(F)F)cc4)n3)cc2)[C@@H]1OC [Compound 250, methyl {4-[1-(4-trifluoromethoxyphenyl)-1H-[1,2,4]triazol-3-yl]-phenyl}-carbamic acid (2S,3R,4R,5S,6S)-4-ethoxy-3,5-dimethoxy-6-methyl-tetrahydropyran-2-yl ester] | – | B (either (1) the compound was tested and less than 50 percent mortality was observed or (2) the compound was not tested) | A (the compound was tested and at least 50 percent mortality was observed) | < 50% | > 50% |
| CCO[C@@H]1[C@@H](OC)[C@H](C)O[C@@H](OC(=O)N(C)c2ccc(-c3ncn(-c4ccc(OC(F)(F)C(F)(F)F)cc4)n3)cc2)[C@@H]1OC [Compound 251, methyl {4-[1-(4-pentafluoroethoxy-phenyl)-1H-[1,2,4]triazol-3-yl]-phenyl}-carbamic acid (2S,3R,4R,5S,6S)-4-ethoxy-3,5-dimethoxy-6-methyl-tetrahydropyran-2-yl ester] | – | B (either (1) the compound was tested and less than 50 percent mortality was observed or (2) the compound was not tested) | A (the compound was tested and at least 50 percent mortality was observed) | < 50% | > 50% |
| CCCO[C@@H]1[C@@H](OC)[C@H](C)O[C@@H](OC(=O)N(CC)c2ccc(-c3ncn(-c4ccc(OC(F)(F)C(F)(F)F)cc4)n3)cc2)[C@@H]1OC [Compound 253, ethyl {4-[1-(4-pentafluoroethoxy-phenyl)-1H-[1,2,4]triazol-3-yl]-phenyl}-carbamic acid (2S,3R,4R,5S,6S)-4-propoxy-3,5-dimethoxy-6-methyl-tetrahydropyran-2-yl ester] | – | A (the compound was tested and at least 50 percent mortality was observed) | A (the compound was tested and at least 50 percent mortality was observed) | > 50% | > 50% |
| CCO[C@@H]1[C@@H](OC)[C@H](C)O[C@@H](OC(=O)N(COC)c2ccc(-c3ncn(-c4ccc(OC(F)(F)F)cc4)n3)cc2)[C@@H]1OC [Compound 254, methoxymethyl {4-[1-(4-trifluoromethoxyphenyl)-1H-[1,2,4]triazol-3-yl]-phenyl}-carbamic acid (2S,3R,4R,5S,6S)-4-ethoxy-3,5-dimethoxy-6-methyl-tetrahydropyran-2-yl ester] | – | A (the compound was tested and at least 50 percent mortality was observed) | A (the compound was tested and at least 50 percent mortality was observed) | > 50% | > 50% |
| CCO[C@@H]1[C@@H](OC)[C@H](C)O[C@@H](OC(=O)N(COC)c2ccc(-c3ncn(-c4ccc(OC(F)(F)C(F)(F)F)cc4)n3)cc2)[C@@H]1OC [Compound 255, methoxymethyl {4-[1-(4-pentafluoroethoxyphenyl)-1H-[1,2,4]triazol-3-yl]-phenyl}-carbamic acid (2S,3R,4R,5S,6S)-4-ethoxy-3,5-dimethoxy-6-methyl-tetrahydropyran-2-yl ester] | – | B (either (1) the compound was tested and less than 50 percent mortality was observed or (2) the compound was not tested) | A (the compound was tested and at least 50 percent mortality was observed) | < 50% | > 50% |
| C=CCN(C(=O)O[C@@H]1O[C@@H](C)[C@H](OC)[C@@H](OCC)[C@H]1OC)c1ccc(-c2ncn(-c3ccc(OC(F)(F)C(F)(F)F)cc3)n2)cc1 [Compound 256, allyl {4-[1-(4-pentafluoroethoxy-phenyl)-1H-[1,2,4]triazol-3-yl]-phenyl}-carbamic acid (2S,3R,4R,5S,6S)-4-ethoxy-3,5-dimethoxy-6-methyl-tetrahydropyran-2-yl ester] | – | A (the compound was tested and at least 50 percent mortality was observed) | A (the compound was tested and at least 50 percent mortality was observed) | > 50% | > 50% |
| CCCO[C@@H]1[C@@H](OC)[C@H](C)O[C@@H](OC(=O)N(CO)c2ccc(-c3ncn(-c4ccc(OC(F)(F)C(F)(F)F)cc4)n3)cc2)[C@@H]1OC [Compound 257, hydroxymethyl {4-[1-(4-pentafluoroethoxy-phenyl)-1H-[1,2,4]triazol-3-yl]-phenyl}-carbamic acid (2S,3R,4R,5S,6S)-4-propoxy-3,5-dimethoxy-6-methyl-tetrahydropyran-2-yl ester] | – | B (either (1) the compound was tested and less than 50 percent mortality was observed or (2) the compound was not tested) | A (the compound was tested and at least 50 percent mortality was observed) | < 50% | > 50% |
